Data: US11214594B2, “Antimicrobial peptide having synergistic antibacterial effect with antibiotics on multidrug resistant bacteria, and use thereof” (priority 2016, dated 2022)
≈ marks a conversion by molar mass, not a printed value. Where two headings read alike, the source gives them in different places. Where a SMILES comes first, the peptide text is derived from it.

Tests used:
MDRPA 2002 = assay type: cell-based, Pseudomonas aeruginosa
Experimental: (§1) For the antibacterial activity, a minimal inhibitory concentration (MIC) of a peptide in which fungus bodies were not split in an MH medium with sufficient nutrients was measured.
(§2) Specifically, the strains described in the following [Table 2] were purchased and diluted with an MH medium such that the number of bacteria was 2×10^6 colony-forming units (CFUs), 100 μl of each of the diluted strains was aliquoted into a 96-well microtiter plate, and then 100 μl of a peptide solution diluted with the MH medium (solution diluted stepwise at 2: 1) was added to each well.

MDRPA 2003 = assay type: cell-based, Pseudomonas aeruginosa
Experimental: as §1, §2

E. coli [1] = assay type: cell-based, Escherichia coli; settings: E. coli
Experimental: (§3) Specifically, the strains described in [Table 2] were prepared and diluted with an MH medium such that the number of bacteria was 2×10^6 colony-forming units (CFUs) per 1 ml, 100 μl of the diluted strains was each aliquoted into a 96-well microtiter plate, and then 50 μl of a peptide solution diluted with the MH medium from the MIC value (solution diluted stepwise at 2: 1) was added to each well. Thereafter, the MIC value of each mixed solution was determined by diluting the antibiotic solution with the MH medium, adding 50 μl of the diluted solution to each well, and performing an experiment even under a reversed condition.

MDREC 1229 [2] = assay type: cell-based, Escherichia coli
Experimental: as §3

MDRAB 12036 = assay type: cell-based, Acinetobacter baumannii
Experimental: as §1, §2

B. subtilis = assay: microbe, parasite or virus in culture; assay type: cell-based, Bacillus subtilis
Experimental: as §1, §2

MDRAB 12035 [3] = assay: MIC of antimicrobial peptide during combined treatment with antibiotic; assay type: cell-based, Acinetobacter baumannii
Experimental: as §3

S. epidermidis = assay: microbe, parasite or virus in culture; assay type: cell-based, Staphylococcus epidermidis
Experimental: as §1, §2

MDRAB 12035 [4] = assay: MIC of antibiotic during combined treatment with antimicrobial peptide; assay type: cell-based, Acinetobacter baumannii
Experimental: as §3

MDRST 8009 = assay type: cell-based, Salmonella typhimurium; settings: agent alone
Experimental: as §1, §2

MRSA 3126 = assay type: cell-based, Staphylococcus aureus; settings: 3126
Experimental: as §1, §2

MRSA 3114 = assay type: cell-based, Staphylococcus aureus; settings: 3114
Experimental: as §1, §2

E. coli [5] = assay: MIC of antibiotic during combined treatment with antimicrobial peptide; assay type: cell-based, Escherichia coli; settings: for Antibiotic MIC, Erythromycin / Antibiotic MIC, Linezolid / Antibiotic MIC, Vancomycin: E. coli
Experimental: Thereafter, the MIC value of each mixed solution was determined by diluting the antibiotic solution with the MH medium, adding 50 μl of the diluted solution to each well, and performing an experiment even under a reversed condition.

MDREC 1238 = assay type: cell-based, Escherichia coli
Experimental: as §1, §2

MDRST 8007 = assay: Minimal inhibitory concentration (MIC), single agent; assay type: cell-based, Salmonella typhimurium; settings: agent alone
Experimental: as §1, §2

P. aeruginosa = assay: microbe, parasite or virus in culture; assay type: cell-based, Pseudomonas aeruginosa
Experimental: as §1, §2

E. coli [6] = assay: microbe, parasite or virus in culture; assay type: cell-based, Escherichia coli; settings: 16 h
Experimental: as §1, §2

MDREC 1229 [7] = assay: microbe, parasite or virus in culture; assay type: cell-based, Escherichia coli
Experimental: as §1, §2

[8] = linezolid 64 μg/ml (Conc./MIC 1/8)
[9] = linezolid 512 μg/ml (Conc./MIC 1)
[10] = vancomycin 512 μg/ml (Conc./MIC 1/2)
[11] = vancomycin 1024 μg/ml (Conc./MIC 1)
[12] = peptide treatment concentration 1 μg/ml
[13] = peptide treatment concentration 2 μg/ml
[14] = peptide treatment concentration 4 μg/ml
[15] = peptide treatment concentration 6 μg/ml
[16] = peptide treatment concentration 8 μg/ml
[17] = peptide treatment concentration 16 μg/ml
[18] = peptide treatment concentration 32 μg/ml
[19] = peptide treatment concentration 64 μg/ml

CC[C@H](C)[C@H](NC(=O)[C@H](CCCCN)NC(=O)[C@H](Cc1c[nH]c2ccccc12)NC(=O)[C@@H](N)CCCNC(=N)N)C(=O)N[C@@H](Cc1ccccc1)C(=O)N[C@@H](CCCCN)C(=O)N[C@@H](CCCCN)C(=O)N[C@H](C(=O)N1CCC[C@H]1C(=O)N[C@@H](CCCCN)C(=O)N[C@@H](CC(C)C)C(=O)N[C@@H](CC(C)C)C(=O)N[C@@H](Cc1c[nH]cn1)C(=O)N[C@@H](CCC(=O)O)C(=O)N[C@@H](Cc1ccccc1)C(=O)N[C@@H](CCCCN)C(=O)N[C@@H](CCCCN)C(=O)N[C@@H](Cc1ccccc1)C(N)=O)[C@@H](C)CC [PapMA-12, RWK IFK KIP KLL HEF KKF-NH2] (H-RWKIFKKIPKLLHEFKKF-NH2; N-terminus assumed)
Minimal inhibitory concentration MIC (MDRPA 2002): 64 mg/L (≈ 26.8 µM)
Minimal inhibitory concentration MIC (MDRPA 2003): 64 mg/L (≈ 26.8 µM)
Peptide MIC (E. coli [1]; with Erythromycin […] (Conc./MIC 1)): 0 mg/L
Peptide MIC (E. coli [1]; with Linezolid […] (Conc./MIC 1)): 0 mg/L
Peptide MIC (E. coli [1]; with Vancomycin 1024 μg/ml (Conc./MIC 1)): 0 mg/L
Peptide MIC during treatment with antibiotic (MDREC 1229 [2]; erythromycin 32 μg/ml (Conc./MIC 1/8)): 2 mg/L
Peptide MIC during treatment with antibiotic (MDREC 1229 [2]; erythromycin 64 μg/ml (Conc./MIC 1/4)): 2 mg/L
Peptide MIC during treatment with antibiotic (MDREC 1229 [2]; erythromycin […] (Conc./MIC 1)): 0 mg/L
Peptide MIC during treatment with antibiotic (MDREC 1229 [2]; erythromycin […] (Conc./MIC 1/2)): 1 mg/L
Peptide MIC during treatment with antibiotic (MDREC 1229 [2]; [8]): 4 mg/L
Peptide MIC during treatment with antibiotic (MDREC 1229 [2]; [9]): 0 mg/L
Peptide MIC during treatment with antibiotic (MDREC 1229 [2]; linezolid […] (Conc./MIC 1/2)): 1 mg/L
Peptide MIC during treatment with antibiotic (MDREC 1229 [2]; linezolid […] (Conc./MIC 1/4)): 2 mg/L
Peptide MIC during treatment with antibiotic (MDREC 1229 [2]; [10]): 2 mg/L
Peptide MIC during treatment with antibiotic (MDREC 1229 [2]; [11]): 1 mg/L
Peptide MIC during treatment with antibiotic (MDREC 1229 [2]; vancomycin […] (Conc./MIC 1/4)): 4 mg/L
Peptide MIC during treatment with antibiotic (MDREC 1229 [2]; vancomycin […] (Conc./MIC 1/8)): 4 mg/L
Minimal inhibitory concentration MIC (MDRAB 12036): 16 mg/L (≈ 6.71 µM)
Minimal inhibitory concentration MIC (B. subtilis): >128 mg/L
Peptide MIC during treatment with erythromycin (MDRAB 12035 [3]; erythromycin 4 μg/ml (Conc./MIC 1/8)): 4 mg/L
Peptide MIC during treatment with erythromycin (MDRAB 12035 [3]; erythromycin 8 μg/ml (Conc./MIC 1/4)): 2 mg/L
Peptide MIC during treatment with erythromycin (MDRAB 12035 [3]; erythromycin 16 μg/ml (Conc./MIC 1/2)): 1 mg/L
Peptide MIC during treatment with erythromycin (MDRAB 12035 [3]; erythromycin 32 μg/ml (Conc./MIC 1)): 0 mg/L
Peptide MIC during treatment with linezolid (MDRAB 12035 [3]; [8]): 2 mg/L
Peptide MIC during treatment with linezolid (MDRAB 12035 [3]; [9]): 0 mg/L
Peptide MIC during treatment with linezolid (MDRAB 12035 [3]; linezolid […] (Conc./MIC 1/2)): 1 mg/L
Peptide MIC during treatment with linezolid (MDRAB 12035 [3]; linezolid […] (Conc./MIC 1/4)): 1 mg/L
Peptide MIC during treatment with vancomycin (MDRAB 12035 [3]; [10]): 2 mg/L
Peptide MIC during treatment with vancomycin (MDRAB 12035 [3]; [11]): 1 mg/L
Peptide MIC during treatment with vancomycin (MDRAB 12035 [3]; vancomycin […] (Conc./MIC 1/4)): 2 mg/L
Peptide MIC during treatment with vancomycin (MDRAB 12035 [3]; vancomycin […] (Conc./MIC 1/8)): 2 mg/L
Minimal inhibitory concentration MIC (S. epidermidis): >128 mg/L
Erythromycin MIC during combined treatment with peptide (MDRAB 12035 [4]; [12]): 16 mg/L
Linezolid MIC during combined treatment with peptide (MDRAB 12035 [4]; [12]): 128 mg/L
Vancomycin MIC during combined treatment with peptide (MDRAB 12035 [4]; [12]): 128 mg/L
Erythromycin MIC during combined treatment with peptide (MDRAB 12035 [4]; [13]): 8 mg/L
Linezolid MIC during combined treatment with peptide (MDRAB 12035 [4]; [13]): 64 mg/L
Vancomycin MIC during combined treatment with peptide (MDRAB 12035 [4]; [13]): 64 mg/L
Erythromycin MIC during combined treatment with peptide (MDRAB 12035 [4]; [14]): 2 mg/L
Linezolid MIC during combined treatment with peptide (MDRAB 12035 [4]; [14]): 16 mg/L
Vancomycin MIC during combined treatment with peptide (MDRAB 12035 [4]; [14]): 16 mg/L
Erythromycin MIC during combined treatment with peptide (MDRAB 12035 [4]; [15]): 1 mg/L
Linezolid MIC during combined treatment with peptide (MDRAB 12035 [4]; [15]): 8 mg/L
Vancomycin MIC during combined treatment with peptide (MDRAB 12035 [4]; [15]): 4 mg/L
Erythromycin MIC during combined treatment with peptide (MDRAB 12035 [4]; [16]): 0 mg/L
Linezolid MIC during combined treatment with peptide (MDRAB 12035 [4]; [16]): 0 mg/L
Vancomycin MIC during combined treatment with peptide (MDRAB 12035 [4]; [16]): 0 mg/L
Erythromycin MIC during combined treatment with peptide (MDRAB 12035 [4]; [17]): 0 mg/L
Linezolid MIC during combined treatment with peptide (MDRAB 12035 [4]; [17]): 0 mg/L
Vancomycin MIC during combined treatment with peptide (MDRAB 12035 [4]; [17]): 0 mg/L
Erythromycin MIC during combined treatment with peptide (MDRAB 12035 [4]; [18]): 0 mg/L
Linezolid MIC during combined treatment with peptide (MDRAB 12035 [4]; [18]): 0 mg/L
Vancomycin MIC during combined treatment with peptide (MDRAB 12035 [4]; [18]): 0 mg/L
Erythromycin MIC during combined treatment with peptide (MDRAB 12035 [4]; [19]): 0 mg/L
Linezolid MIC during combined treatment with peptide (MDRAB 12035 [4]; [19]): 0 mg/L
Vancomycin MIC during combined treatment with peptide (MDRAB 12035 [4]; [19]): 0 mg/L
Minimal inhibitory concentration MIC (MDRST 8009): 32 mg/L (≈ 13.4 µM)
Minimal inhibitory concentration MIC (MRSA 3126): >128 mg/L
Minimal inhibitory concentration MIC (MRSA 3114): >128 mg/L
Synergistic effect of antibacterial activity with existing antibiotics compared with PapMA-1 (E. coli [5]; E. coli and MDREC1229): higher level than the PapMA-1 peptide
Antibiotic MIC, Erythromycin (E. coli [5]; erythromycin combined with peptide at 1 μg/ml): 64 mg/L
Antibiotic MIC, Erythromycin (E. coli [5]; erythromycin combined with peptide at 2 μg/ml): 32 mg/L
Antibiotic MIC, Erythromycin (E. coli [5]; erythromycin combined with peptide at 4 μg/ml): 2 mg/L
Antibiotic MIC, Erythromycin (E. coli [5]; erythromycin combined with peptide at 6 μg/ml): 1 mg/L
Antibiotic MIC, Erythromycin (E. coli [5]; erythromycin combined with peptide at 8 μg/ml): 0 mg/L
Antibiotic MIC, Erythromycin (E. coli [5]; erythromycin combined with peptide at 16 μg/ml): 0 mg/L
Antibiotic MIC, Erythromycin (E. coli [5]; erythromycin combined with peptide at 32 μg/ml): 0 mg/L
Antibiotic MIC, Erythromycin (E. coli [5]; erythromycin combined with peptide at 64 μg/ml): 0 mg/L
Antibiotic MIC, Linezolid (E. coli [5]; linezolid combined with peptide at 1 μg/ml): >128 mg/L
Antibiotic MIC, Linezolid (E. coli [5]; linezolid combined with peptide at 2 μg/ml): 128 mg/L
Antibiotic MIC, Linezolid (E. coli [5]; linezolid combined with peptide at 4 μg/ml): 8 mg/L
Antibiotic MIC, Linezolid (E. coli [5]; linezolid combined with peptide at 6 μg/ml): 2 mg/L
Antibiotic MIC, Linezolid (E. coli [5]; linezolid combined with peptide at 8 μg/ml): 0 mg/L
Antibiotic MIC, Linezolid (E. coli [5]; linezolid combined with peptide at 16 μg/ml): 0 mg/L
Antibiotic MIC, Linezolid (E. coli [5]; linezolid combined with peptide at 32 μg/ml): 0 mg/L
Antibiotic MIC, Linezolid (E. coli [5]; linezolid combined with peptide at 64 μg/ml): 0 mg/L
Antibiotic MIC, Vancomycin (E. coli [5]; vancomycin combined with peptide at 1 μg/ml): >128 mg/L
Antibiotic MIC, Vancomycin (E. coli [5]; vancomycin combined with peptide at 2 μg/ml): 128 mg/L
Antibiotic MIC, Vancomycin (E. coli [5]; vancomycin combined with peptide at 4 μg/ml): 16 mg/L
Antibiotic MIC, Vancomycin (E. coli [5]; vancomycin combined with peptide at 6 μg/ml): 8 mg/L
Antibiotic MIC, Vancomycin (E. coli [5]; vancomycin combined with peptide at 8 μg/ml): 0 mg/L
Antibiotic MIC, Vancomycin (E. coli [5]; vancomycin combined with peptide at 16 μg/ml): 0 mg/L
Antibiotic MIC, Vancomycin (E. coli [5]; vancomycin combined with peptide at 32 μg/ml): 0 mg/L
Antibiotic MIC, Vancomycin (E. coli [5]; vancomycin combined with peptide at 64 μg/ml): 0 mg/L
Minimal inhibitory concentration MIC (MDREC 1238): 16 mg/L (≈ 6.71 µM)
Minimal inhibitory concentration MIC (MDRST 8007): 16 mg/L (≈ 6.71 µM)
Minimal inhibitory concentration MIC (P. aeruginosa): 64 mg/L (≈ 26.8 µM)
Minimal inhibitory concentration MIC (E. coli [6]): 8 mg/L (≈ 3.35 µM)
Minimal inhibitory concentration MIC (MDREC 1229 [7]): 16 mg/L (≈ 6.71 µM)
Peptide MIC, peptide alone (MDREC 1229 [7]): 16 mg/L
